Data reported in ChEMBL document CHEMBL6114951, “Discovery of 3-amide-pyrimidine-based derivatives as potential fms-like tyrosine receptor kinase 3 (FLT3) inhibitors for treating acute myelogenous leukemia” (Bioorg Med Chem Lett, 2025).
Activity calls are given as the source filed them. No cut-off for these calls is given here.

Legend:
MV4-11 [1] = assay: cells; conditions: Homo sapiens
Description: Antiproliferative activity against human MV4-11 cells by CCK-8 assay

A549 = assay: cells; conditions: Homo sapiens
Description: Antiproliferative activity against human A549 cells by CCK-8 assay

HCT-116 = assay: cells; conditions: Homo sapiens
Description: Antiproliferative activity against human HCT-116 cells by CCK-8 assay

MV4-11 [2] = assay: Cell cycle arrest in human MV4-11 cells assessed as increase in accumulation at G0/G1-phase measured after 24 hrs by propidium iodide staining based flow cytometry; assay type: functional; conditions: dose 0.2-10 µM
c-Kit = c-Kit (Homo sapiens, UniProt P10721); assay: Inhibition of c-Kit (unknown origin) at 100 uM relative to control; assay type: toxicity
MV4-11 [3] = assay: Cell cycle arrest in human MV4-11 cells assessed as accumulation at G1-phase at 0.2 uM measured after 24 hrs by propidium iodide staining based flow cytometry (reference value: 70.31%); assay type: functional
MV4-11 [4] = assay: Cell cycle arrest in human MV4-11 cells assessed as accumulation at G2-phase at 0.2 uM measured after 24 hrs by propidium iodide staining based flow cytometry (reference value: 8.87%); assay type: functional
MV4-11 [5] = assay: Cell cycle arrest in human MV4-11 cells assessed as accumulation at S-phase at 0.2 uM measured after 24 hrs by propidium iodide staining based flow cytometry (reference value: 20.83%); assay type: functional
MV4-11 [6] = assay: Cell cycle arrest in human MV4-11 cells assessed as accumulation at G1-phase at 2 uM measured after 24 hrs by propidium iodide staining based flow cytometry (reference value: 70.31%); assay type: functional
MV4-11 [7] = assay: Cell cycle arrest in human MV4-11 cells assessed as accumulation at G2-phase at 2 uM measured after 24 hrs by propidium iodide staining based flow cytometry (reference value: 8.87%); assay type: functional
MV4-11 [8] = assay: Cell cycle arrest in human MV4-11 cells assessed as accumulation at S-phase at 2 uM measured after 24 hrs by propidium iodide staining based flow cytometry (reference value: 20.83%); assay type: functional
MV4-11 [9] = assay: Cell cycle arrest in human MV4-11 cells assessed as accumulation at G1-phase at 10 uM measured after 24 hrs by propidium iodide staining based flow cytometry (reference value: 70.31%); assay type: functional
MV4-11 [10] = assay: Cell cycle arrest in human MV4-11 cells assessed as accumulation at G2-phase at 10 uM measured after 24 hrs by propidium iodide staining based flow cytometry (reference value: 8.87%); assay type: functional
MV4-11 [11] = assay: Cell cycle arrest in human MV4-11 cells assessed as accumulation at S-phase at 10 uM measured after 24 hrs by propidium iodide staining based flow cytometry (reference value: 20.83%); assay type: functional
MV4-11 [12] = assay: Induction of morphological changes in human MV4-11 cells assessed as cell wrinkling; assay type: functional, cell-based
MV4-11 [13] = assay: Induction of morphological changes in human MV4-11 cells assessed as cell fragmentation; assay type: functional, cell-based
MV4-11 [14] = assay: Induction of apoptosis in human MV4-11 cells measured after 24 hrs by Annexin V-FITC/propidium iodide staining based flow cytometry; assay type: functional, cell-based; conditions: dose 0.2-5 µM
MV4-11 [15] = assay: Induction of apoptosis in human MV4-11 cells assessed as viable cells at 0.2 uM measured after 24 hrs by Annexin V-FITC/propidium iodide staining based flow cytometry (reference value: 92.7%); assay type: functional; conditions: read-out: Activity
MV4-11 [16] = assay: Induction of apoptosis in human MV4-11 cells assessed as early apoptotic cells at 0.2 uM measured after 24 hrs by Annexin V-FITC/propidium iodide staining based flow cytometry (reference value: 5.2%); assay type: functional
MV4-11 [17] = assay: Induction of apoptosis in human MV4-11 cells assessed as late apoptotic cells at 0.2 uM measured after 24 hrs by Annexin V-FITC/propidium iodide staining based flow cytometry (reference value: 2%); assay type: functional
MV4-11 [18] = assay: Induction of apoptosis in human MV4-11 cells assessed as necrotic cells at 0.2 uM measured after 24 hrs by Annexin V-FITC/propidium iodide staining based flow cytometry (reference value: 0.2%); assay type: functional
MV4-11 [19] = assay: Induction of apoptosis in human MV4-11 cells assessed as viable cells at 2 uM measured after 24 hrs by Annexin V-FITC/propidium iodide staining based flow cytometry (reference value: 92.7%); assay type: functional; conditions: read-out: Activity
MV4-11 [20] = assay: Induction of apoptosis in human MV4-11 cells assessed as viable cells at 5 uM measured after 24 hrs by Annexin V-FITC/propidium iodide staining based flow cytometry (reference value: 92.7%); assay type: functional; conditions: read-out: Activity
MV4-11 [21] = assay: Induction of apoptosis in human MV4-11 cells assessed as early apoptotic cells at 2 uM measured after 24 hrs by Annexin V-FITC/propidium iodide staining based flow cytometry (reference value: 5.2%); assay type: functional
MV4-11 [22] = assay: Induction of apoptosis in human MV4-11 cells assessed as late apoptotic cells at 2 uM measured after 24 hrs by Annexin V-FITC/propidium iodide staining based flow cytometry (reference value: 2%); assay type: functional
MV4-11 [23] = assay: Induction of apoptosis in human MV4-11 cells assessed as necrotic cells at 2 uM measured after 24 hrs by Annexin V-FITC/propidium iodide staining based flow cytometry (reference value: 0.2%); assay type: functional
MV4-11 [24] = assay: Induction of apoptosis in human MV4-11 cells assessed as early apoptotic cells at 5 uM measured after 24 hrs by Annexin V-FITC/propidium iodide staining based flow cytometry (reference value: 5.2%); assay type: functional
MV4-11 [25] = assay: Induction of apoptosis in human MV4-11 cells assessed as late apoptotic cells at 5 uM measured after 24 hrs by Annexin V-FITC/propidium iodide staining based flow cytometry (reference value: 2%); assay type: functional
MV4-11 [26] = assay: Induction of apoptosis in human MV4-11 cells assessed as necrotic cells at 5 uM measured after 24 hrs by Annexin V-FITC/propidium iodide staining based flow cytometry (reference value: 0.2%); assay type: functional
MV4-11 [27] = assay: Induction of mitochondrial membrane potential loss in human MV4-11 cells measured after 24 hrs by JC-1 staining based flow cytometry; assay type: functional, cell-based; conditions: dose 0.2-10 µM
MV4-11 [28] = assay: Induction of mitochondrial membrane potential loss in human MV4-11 cells assessed as cells with high MMP (aggregates) at 0.2 uM measured after 24 hrs by JC-1 staining based flow cytometry (reference value: 97%); assay type: functional
MV4-11 [29] = assay: Induction of mitochondrial membrane potential loss in human MV4-11 cells assessed as cells with low MMP (monomers) at 0.2 uM measured after 24 hrs by JC-1 staining based flow cytometry (reference value: 2.9%); assay type: functional
MV4-11 [30] = assay: Induction of mitochondrial membrane potential loss in human MV4-11 cells assessed as cells with high MMP (aggregates) at 2 uM measured after 24 hrs by JC-1 staining based flow cytometry (reference value: 97%); assay type: functional
MV4-11 [31] = assay: Induction of mitochondrial membrane potential loss in human MV4-11 cells assessed as cells with low MMP (monomers) at 2 uM measured after 24 hrs by JC-1 staining based flow cytometry (reference value: 2.9%); assay type: functional
MV4-11 [32] = assay: Induction of mitochondrial membrane potential loss in human MV4-11 cells assessed as cells with high MMP (aggregates) at 10 uM measured after 24 hrs by JC-1 staining based flow cytometry (reference value: 97%); assay type: functional
MV4-11 [33] = assay: Induction of mitochondrial membrane potential loss in human MV4-11 cells assessed as cells with low MMP (monomers) at 10 uM measured after 24 hrs by JC-1 staining based flow cytometry (reference value: 2.9%); assay type: functional
[34] = target: Mast/stem cell growth factor receptor Kit (Homo sapiens, UniProt P10721)
in vitro = conditions: human, HEK293T cells
Description: Cytotoxicity against HEK293T cells by CCK-8 assay

Chain of Mast/stem cell growth factor receptor Kit (P10721 whole entry): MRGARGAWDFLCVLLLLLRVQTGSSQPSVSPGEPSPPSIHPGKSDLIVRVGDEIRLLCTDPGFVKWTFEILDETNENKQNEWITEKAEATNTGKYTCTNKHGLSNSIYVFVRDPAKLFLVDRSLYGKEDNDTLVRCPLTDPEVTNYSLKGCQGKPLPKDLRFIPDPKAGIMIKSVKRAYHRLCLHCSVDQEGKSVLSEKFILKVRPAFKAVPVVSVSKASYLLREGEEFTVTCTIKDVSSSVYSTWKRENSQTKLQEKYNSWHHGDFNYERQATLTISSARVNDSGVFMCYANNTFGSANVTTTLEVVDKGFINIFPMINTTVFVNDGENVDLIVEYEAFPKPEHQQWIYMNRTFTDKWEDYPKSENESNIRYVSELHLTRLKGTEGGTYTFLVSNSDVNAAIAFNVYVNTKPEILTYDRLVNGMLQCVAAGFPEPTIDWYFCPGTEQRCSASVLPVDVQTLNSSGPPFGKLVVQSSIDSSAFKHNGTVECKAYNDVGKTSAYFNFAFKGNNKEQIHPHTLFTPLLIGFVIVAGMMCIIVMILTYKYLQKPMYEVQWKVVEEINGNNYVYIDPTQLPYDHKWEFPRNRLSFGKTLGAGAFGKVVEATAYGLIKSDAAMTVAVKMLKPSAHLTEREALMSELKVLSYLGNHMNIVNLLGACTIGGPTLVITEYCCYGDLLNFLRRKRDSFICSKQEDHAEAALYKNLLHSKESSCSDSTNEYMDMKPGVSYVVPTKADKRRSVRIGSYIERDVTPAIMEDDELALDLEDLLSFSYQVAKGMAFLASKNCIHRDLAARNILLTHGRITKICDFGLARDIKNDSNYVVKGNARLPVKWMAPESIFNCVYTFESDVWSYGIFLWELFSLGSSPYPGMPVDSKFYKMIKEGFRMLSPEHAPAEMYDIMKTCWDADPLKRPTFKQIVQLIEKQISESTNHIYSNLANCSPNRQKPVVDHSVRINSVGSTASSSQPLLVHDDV
Chain of c-Kit (P10721 whole entry): as above

Q: With `NC(=O)c1cnc(N2CCCC2)nc1Nc1ccc(Oc2ccccc2)cc1` as the molecule, how does the IC50 (MV4-11 [1]) read?
A: The IC50 was 35.8 µM.

Q: What about the IC50 (A549) of the same molecule?
A: Its IC50 is 10.6 µM.

Q: What about the IC50 (HCT-116) of the same molecule?
A: The IC50 was greater than 50 µM.

Q: For `N#Cc1cnc(NC2CCCC2)nc1Nc1ccc(Oc2ccccc2)cc1`, which IC50 (MV4-11 [1]) is on record?
A: Its IC50 is 35.2 µM.

Q: And the IC50 (A549)?
A: Its IC50 is greater than 50 µM.

Q: What about the IC50 (HCT-116) of the same molecule?
A: The IC50 was greater than 50 µM.

Q: What does the source list for `CC(C)N1CCC(Nc2ncc(C(N)=O)c(Nc3ccc(Oc4ccccc4)cc3)n2)CC1`?
A: Activity (MV4-11 [2]): Dose-dependent-effect; inhibition at 100 µM (c-Kit): 17.5%; Activity (MV4-11 [3]): 75.47%; Activity (MV4-11 [4]): 4.45%; Activity (MV4-11 [5]): 20.08%; Activity (MV4-11 [6]): 82.96%; Activity (MV4-11 [7]): 5.41%; Activity (MV4-11 [8]): 11.9%; Activity (MV4-11 [9]): 89.91%; Activity (MV4-11 [10]): 5.7%; Activity (MV4-11 [11]): 4.39%; Activity (MV4-11 [12]): Active; Activity (MV4-11 [13]): Active; Activity (MV4-11 [14]): Dose-dependent-effect; viability at 0.2 µM (MV4-11 [15]): 78.5%; Activity (MV4-11 [16]): 15.1%; Activity (MV4-11 [17]): 6%; Activity (MV4-11 [18]): 0.3%; viability at 2 µM (MV4-11 [19]): 32.8%; viability at 5 µM (MV4-11 [20]): 11.7%; Activity (MV4-11 [21]): 50.5%; Activity (MV4-11 [22]): 16.4%; Activity (MV4-11 [23]): 0.3%; Activity (MV4-11 [24]): 51.7%; Activity (MV4-11 [25]): 35.8%; Activity (MV4-11 [26]): 0.8%; Activity (MV4-11 [27]): Dose-dependent-effect; Activity (MV4-11 [28]): 96.2%; Activity (MV4-11 [29]): 3.8%; Activity (MV4-11 [30]): 94.9%; Activity (MV4-11 [31]): 5%; Activity (MV4-11 [32]): 86.6%; Activity (MV4-11 [33]): 13.1%; IC50 [34]: > 100 µM; IC50 (MV4-11 [1]): 0.59 µM; IC50 (A549): 7.73 µM; IC50 (HCT-116): 3.14 µM; IC50 (in vitro): 40.2 µM

Q: With `Cc1nc(NC2CCN(C)CC2)nc(Nc2ccc(Oc3ccccc3)cc2)c1C(=O)O` as the molecule, how does the IC50 (MV4-11 [1]) read?
A: Its IC50 is greater than 50 µM.

Q: And the IC50 (A549)?
A: The IC50 was greater than 50 µM.

Q: And the IC50 (HCT-116)?
A: Its IC50 is greater than 50 µM.

Q: For `CCNC(=O)c1c(C)nc(NC2CCN(C)CC2)nc1Nc1ccc(Oc2ccccc2)cc1`, which IC50 (MV4-11 [1]) is on record?
A: The IC50 was 5.03 µM.

Q: What about the IC50 (A549) of the same molecule?
A: Its IC50 is 20 µM.

Q: What about the IC50 (HCT-116) of the same molecule?
A: The IC50 was 23.4 µM.

Q: Which results are given for `CN1CCC(N(C)c2ncc(C#N)c(Nc3ccc(Oc4ccccc4)cc3)n2)CC1`?
A: IC50 (MV4-11 [1]): 2.09 µM; IC50 (A549): 12.5 µM; IC50 (HCT-116): 5.99 µM

Q: For `CN1CCC(N(C)c2ncc(C(N)=O)c(Nc3ccc(Oc4ccccc4)cc3)n2)CC1`, which IC50 (MV4-11 [1]) is on record?
A: Its IC50 is 0.66 µM.

Q: And the IC50 (A549)?
A: The IC50 was 7.67 µM.

Q: What about the IC50 (HCT-116) of the same molecule?
A: Its IC50 is 3.93 µM.

Q: What does the source list for `CN1CCC(Nc2ncc(C(N)=O)c(Nc3ccc(Oc4ccccc4)cc3)n2)CC1`?
A: IC50 (MV4-11 [1]): 2.09 µM; IC50 (A549): 2.88 µM; IC50 (HCT-116): 1.9 µM
